# From ChEMBL document CHEMBL1795222, “Pyridazine-derived γ-secretase modulators” (Bioorg Med Chem Lett, 2011)
# Calls of active or inactive are those of the source. The rule behind the calls is not given here.
# Legend:
# [1] = Clearance in Sprague-Dawley rat blood at 1 mg/kg, iv and 2 mg/kg, po; type: ADME, organism-based
# [2] = Volume of distribution at steady state in Sprague-Dawley rat at 1 mg/kg, iv and 2 mg/kg, po; type: ADME, organism-based; conditions: in vivo, read-out: Vdss
# [3] = Half life in Sprague-Dawley rat at 1 mg/kg, iv and 2 mg/kg, po; type: ADME, organism-based; conditions: in vivo
# [4] = Oral bioavailability in Sprague-Dawley rat at 2 mg/kg; type: ADME, organism-based; conditions: in vivo
# [5] = Inhibition of gamma-secretase expressed in african green monkey CV1 cells coexpressing Gal4 DNA-binding/transactivation domain assessed as inhibition of notch processing after 22 hrs by luciferase reporter assay; type: cell-based; conditions: CV-1, 22 h
# Gamma-secretase [6] = experiment: Inhibition of gamma-secretase in human SHSY5Y cells expressing Swedish variant of APP K595N/M596L assessed as reduction of amyloid beta 40 formation after 16 hrs by ELISA; type: cell-based; conditions: sh-sy5y
# Gamma-secretase [7] = experiment: Inhibition of gamma-secretase in human SHSY5Y cells expressing Swedish variant of APP K595N/M596L assessed as reduction of amyloid beta 42 formation after 16 hrs by ELISA; type: cell-based; conditions: sh-sy5y
# CV-1 = experiment: Agonist activity at gamma-secretase expressed in african green monkey CV1 cells coexpressing Gal4 DNA-binding/transactivation domain assessed as increase of notch processing at 10 uM after 22 hrs by luciferase reporter assay; type: cell-based
# [8] = molecular target: T1, Gamma-secretase (Homo sapiens) (UniProt Q96BI3+Q9NZ42+Q8WW43+P49768+Q92542+P49810); experiment: Inhibition of gamma-secretase in human SHSY5Y cells expressing Swedish variant of APP K595N/M596L assessed as reduction of amyloid beta 40 level after 24 hrs by DELFIA; type: cell-based; conditions: SH-SY5Y
# [9] = molecular target: T1, Gamma-secretase (Homo sapiens); experiment: Inhibition of gamma-secretase in human SHSY5Y cells expressing Swedish variant of APP K595N/M596L assessed as reduction of amyloid beta 42 level after 24 hrs by DELFIA; type: cell-based; conditions: SH-SY5Y
# [10] = molecular target: T1, Gamma-secretase (Homo sapiens); experiment: Inhibition of gamma-secretase in human SHSY5Y cells expressing Swedish variant of APP K595N/M596L assessed as reduction of total amyloid beta level after 24 hrs by DELFIA; type: cell-based; conditions: SH-SY5Y
# Rattus norvegicus = experiment: Antialzheimer activity in rat assessed as reduction of amyloid beta 42 level in brain at 30 mg/kg, po after 6 hrs; type: functional; set-up: scale not given: the % may be the effect or the level left
# SH-SY5Y = experiment: Cytotoxicity against human SH-SY5Y cells assessed as effect of cell viability at 100 uM after 24 hrs by WST1 assay; type: cell-based
# [11] = Drug level in rat blood at 30 mg/kg, po after 6 hrs; type: ADME, organism-based; set-up: dose 30 mg/kg, route oral; conditions: read-out: Drug uptake
# [12] = Drug level in rat brain at 30 mg/kg, po after 6 hrs; type: ADME, organism-based; set-up: dose 30 mg/kg, route oral; conditions: read-out: Drug uptake
# [13] = Ratio of drug level in brain to blood in rat at 30 mg/kg, po after 6 hrs; type: ADME, organism-based; set-up: dose 30 mg/kg, route oral; conditions: read-out: BBR
IC50 [5] [µM],pIC50 (Gamma-secretase [6]),pIC50 (Gamma-secretase [7]),Structure (SMILES),further results
10,6.9,7.3,CC[C@H](Nc1ccc(-c2ccc(-n3cnc(C)c3)c(OC)c2)nn1)c1ccc(F)cc1,
10,7.1,7.3,COc1cc(-c2ccc(N[C@@H](C)c3ccccc3F)nn2)ccc1-n1cnc(C)c1,
> 20,6.7,7.2,COc1cc(-c2ccc(N[C@@H](C)c3ccc(F)cc3)nn2)ccc1-n1cnc(C)c1,
> 20,6.9,7.2,COc1cc(-c2ccc(N[C@@H](C)c3cccc(F)c3)nn2)ccc1-n1cnc(C)c1,
> 20,6,6.2,COc1cc(-c2ccc(N[C@H](C)c3ccc(F)cc3)nn2)ccc1-n1cnc(C)c1,
> 20,6.2,6.5,COc1cc(-c2ccc(NCc3ccc(F)cc3)nn2)ccc1-n1cnc(C)c1,
1,4.7,5.6,COc1cc(-c2ccc(NC(=O)c3ccc(F)cc3)nn2)ccc1-n1cnc(C)c1,
,6.1,7,COc1cc(-c2ccc(NC(C)(C)c3ccc(F)cc3)nn2)ccc1-n1cnc(C)c1,Activity (CV-1): > 30%
20,6.8,7.4,COc1cc(-c2ccc(N[C@H](c3ccc(F)cc3)C(C)(C)O)nn2)ccc1-n1cnc(C)c1,
> 20,6.8,6.8,COc1ccc([C@H](C)Nc2ccc(-c3ccc(-n4cnc(C)c4)c(OC)c3)nn2)cc1,
> 20,6.9,7.3,COc1cc(-c2ccc(N[C@@H](C)c3ccc(C(F)(F)F)cc3)nn2)ccc1-n1cnc(C)c1,

# The remaining lines, values behind:
Structure (SMILES),IC50 [5] [µM],pIC50 (Gamma-secretase [6]),pIC50 (Gamma-secretase [7]),further results
COc1cc(-c2cc(C)c(N[C@@H](C)c3ccc(F)cc3)nn2)ccc1-n1cnc(C)c1.Cl,,,,clearance [1]: 0.306 L/h/kg; Vd [2]: 1.4 L/kg; half-life [3]: 3.1 h; bioavailability [4]: 98%
COc1cc(-c2ccc(N[C@@H](C)c3ccccc3)nn2)ccc1-n1cnc(C)c1,> 20,6.8,7.1,
COC[C@H](Nc1ccc(-c2ccc(-n3cnc(C)c3)c(OC)c2)nn1)c1ccccc1,> 20,6.5,6.8,
COc1cc(-c2cc(C(C)C)c(N[C@@H](C)c3ccc(F)cc3)nn2)ccc1-n1cnc(C)c1,,7,7.3,Activity (CV-1): > 30%
COc1cc(-c2cc(C#N)c(N[C@@H](C)c3ccc(F)cc3)nn2)ccc1-n1cnc(C)c1,15.8,5.8,6.9,
COc1cc(-c2cc(C)c(N[C@@H](C)c3ccc(F)cc3)nn2)ccc1-n1cnc(C)c1 [listing 1 of 2 here],,,,inhibition [8]: Dose-dependent effect; inhibition [9]: Dose-dependent effect; inhibition [10]: Active
COc1cc(-c2cc(C)c(N[C@@H](C)c3ccc(F)cc3)nn2)ccc1-n1cnc(C)c1 [listing 2 of 2 here],10,6.7,7.2,Activity (Rattus norvegicus): >20%; Activity (SH-SY5Y): Toxic; concentration at 6 h [11]: 16 µM; concentration at 6 h [12]: 9.09 µM; Kp at 6 h [13]: 0.56
COc1cc(-c2nnc(N[C@@H](C)c3ccc(F)cc3)cc2C)ccc1-n1cnc(C)c1,15.8,6.3,6.7,
COc1cc(-c2nnc(N[C@@H](C)c3ccc(F)cc3)c(C)c2C)ccc1-n1cnc(C)c1,> 20,5.9,6.5,
COc1cc(-c2cc(C(F)(F)F)c(N[C@@H](C)c3ccc(F)cc3)nn2)ccc1-n1cnc(C)c1,,5.6,7,Activity (CV-1): > 30%
CCc1cc(-c2ccc(-n3cnc(C)c3)c(OC)c2)nnc1N[C@@H](C)c1ccc(F)cc1,,6.8,7.2,Activity (CV-1): > 30%
